Data as given in US20160377605A1, “LYSOSOMAL ATP SELECTIVE TWO-PHOTON ABSORBING FLUORESCENT PROBE” (POSTECH ACADEMY-INDUSTRY FOUNDATION, priority 2015, published 2016).

What was measured:
HeLa cells = test: MTT assay cytotoxicity / cell viability; format: cell-based
Description: The present inventors examine the cytotoxicity of Compound 4 (R1═R2═H), which is the fluorescent probe according to embodiments of the present invention, by treating HeLa cells (human uterine cancer cells) with the compound, and the results are provided in FIG. 5.
To examine the cytotoxicity of Compound 4, an MTT assay was conducted on the HeLa cells and the cell viability was assessed.
Specifically, the cells (100 μL/well) were prepared in a 96-well plate at the density of about 5×10^3 cells per well. The cells were treated with Compound 4 at the concentration of 10, 30, 50, or 100 μM, cultured for 1 hour, and then washed with a PBS buffer solution. 25 μL of a 5 mg/mL 3-(4,5-[…])-2,5-diphenyltetrazolium bromide (MTT) solution was put in each well. After culturing for 2 hours at 37° C., the medium was removed, formazan crystals were dissolved in dimethyl sulfoxide (DMSO), and the absorbance was measured using a plate reader. According to FIG. 5, Compound 4 was confirmed to have low cytotoxicity up to the concentration of 10 μM within 24 hours (about 8% of the cells died). In addition, even when the concentration of Compound 4 was increased to 100 μM, it was confirmed that cytotoxicity within 8 hours was low (about 20% of the cells died), which indicated the possibility of conducting experiments in the corresponding range.

[1] = Absorption characteristic of fluorescent probe with and without ATP; format: physicochemical; settings: 10 μM, pH 5.5 PBS (0.1% acetonitrile)
Description: Specifically, to observe the absorption characteristic of the fluorescent probe, the present inventors measured an absorbance spectrum by filling, with a pH 5.5 PBS solution (with 0.1% acetonitrile) comprising 10 μM Compound 4, a quartz fluorescence cell (114F-QS, Hellma Analytics) with a 1 cm light path, and a graph of the absorbance (y-axis) with respect to the wavelength (x-axis) is shown in FIG. 1A. In addition, another absorbance spectrum was measured by filling a quartz fluorescence cell (114F-QS, Hellma Analytics) with a 1 cm light path with a pH 5.5 PBS solution (with 0.1% acetonitrile) comprising 10 μM Compound 4 and 1 mM ATP, and a graph of the absorbance (y-axis) with respect to the wavelength (x-axis) is shown in FIG. 1B. […] On the other hand, in FIG. 1B in which ATP was detected, a new absorption was observed near 540 nm in addition to 400 nm. The absorbance spectra were obtained using the HP 8453 UV/Vis spectrophotometer.

[2] = Selectivity of ATP detection among various cations and anions (fluorescence ratio); settings: 10 μM, pH 5.5 PBS, analytes at 1 mM
Description: In order to examine the selectivity of Compound 4 in ATP detection, the present inventors measured a fluorescence spectrum (the fluorescence spectrum was obtained using a Photon Technical International Fluorescence System) by filling a quartz fluorescence cell (114F-QS, Hellma Analytics) with a 1 cm light path with a pH 5.5 PBS solution (with 0.1% acetonitrile) comprising Compound 4 at 10 μM and various cations and anions (ATP, ADP, AMP, cytidine triphosphate (CTP), uridine triphosphate (UTP), guanosine triphosphate (GTP), thymine triphosphate (TTP), […] (PPi), phosphoric acid (H3PO4), nitrate anions (NO3^−), phosphate anions (PO4^3−), dithionite ion (S2O4^2−), sulfate ion (SO4^2−), acetate ion, nitrite ion (NO2^−), perchlorate ions (ClO4^−), citrate ions, monohydrogen phosphate ions (HPO4^2−), cyanide ions (CN^−), nickel ions (Ni^+), silver ions (Ag^+), manganese ions (Mn^2+), palladium ions (Pd^2+), cadmium ions (Cd^2+), cobalt ions (Co^3+), iron ions (Fe^+), zinc ion (Zn^2+), copper ion (Cu^2+), potassium ion (K^+), magnesium ion (Mg^2+), calcium ions (Ca^2+), sodium ions (Na^+), lead ions (Pb^2+), and chromium ions (Cr^3+)) at 1 mM, and the fluorescence ratios (y-axis) for various analytes (x-axis) were provided in FIG. 4.

[3] = system: lysosomal ATP in rat brain tissue; test: Two-photon microscopic imaging of rat brain tissue treated with fluorescent probe; settings: rat brain tissue slice, 30 μM, 20 minutes, 780 nm two-photon excitation
Description: The present inventors treated a rat brain tissue with Compound 4 (R1═R2═H), which is the fluorescent probe according to embodiments of the present invention and observed the changes in fluorescence through two-photon fluorescence microscopy, and the results are provided in FIG. 8. The scale bar in FIG. 8 is 80 μm.
Specifically, to obtain a two-photon fluorescence microscopic image of a rat tissue treated with Compound 4, an experiment was carried out under a condition of isolated from light (in a dark room) using a […] rat (5 weeks old, male, Samtako Inc.). The brain of the rat was dissected and washed with a PBS buffer solution, and then the individual organs were frozen with dry ice for 5 minutes. The frozen organs were broken with a hammer, and 50 μm-thick tissue slice samples were prepared using a cryostat machine (CM3000, Leica). […] The fluorescence was observed through two-photon fluorescence microscopy. The two-photon fluorescence microscope was configured with a 20× objective lens (HCX APO L 20×/1.00 W, Leica, Germany), and the observation was carried out using a Ti: Sapphire laser (Chameleon Ultra II, Coherent) with 6 mW laser output and at a 780 nm two-photon excitation wavelength.

[4] = system: lysosomal ATP in HeLa cells; test: Lysosomal selectivity: colocalization with LysoTracker by one-photon and two-photon fluorescence microscopy; format: cell-based, human
Description: The present inventors treated HeLa cells with Compound 4 (R1═R2═H), which is a fluorescent probe, examined a fluorescence emission phenomenon through two-photon fluorescence microscopy, and assessed lysosomal selectivity by treating the cells also with LysoTracker (Life Technologies Corp.), which is a lysosome marker widely used to assess lysosomal selectivity, and then performing one-photon and two-photon fluorescence microscopy. The scale bar in FIG. 6 is 25 μm.
Each cell was cultured in Minimum Essential Medium with Earle's Balanced Salts (MEM/EBSS) of Hyclone™ GE Healthcare Life Sciences and a Dulbecco's modified Eagle's medium (DMEM), and the culture was carried out at 37° C. […] The cells prepared as thus were observed through two-photon fluorescence microscopy to obtain fluorescence images, and the two-photon fluorescence microscopic images were obtained at a 780 nm excitation wavelength and through a laser power of 4 mW respectively in the blue channel (440-490 nm), yellow channel (550-600 nm), and red channel (650-700 nm). […]
The experiment was repeated with LysoTracker Deep Red (Life Technologies Corp.). HeLa cells were treated with LysoTracker, and then a fluorescence image thereof was obtained with a one-photon fluorescence microscope (TCS SP5 II, Leica, Germany). […]

[5] = Fluorescence ATP detection characteristic, ratiometric, in PBS solution
Description: Specifically, to observe the ATP detection characteristic of Compound 4, the present inventors measured a fluorescence spectrum (the fluorescence spectrum was obtained using a Photon Technical International Fluorescence System) by filling a quartz fluorescence cell (114F-QS, Hellma Analytics) with a 1 cm light path with a pH 5.5 PBS solution (with 0.1% acetonitrile) comprising 10 μM Compound 4 and ATP (0.0-1.0 mM), and graphs of the normalized fluorescence intensity (y-axis) with respect to the wavelength (x-axis) are shown in FIG. 2A. […] In addition, to assess the feasibility of quantification by a ratiometric detection system, the correlation between the ATP concentration (x-axis) and the fluorescence ratio (the ratio between two types of fluorescence) (y-axis) was provided in FIG. 2B. As appears in FIG. 2B, the proportional relationship between the ATP concentration and the ratio between two types of fluorescence proves the feasibility of quantification by a ratiometric detection system.
In order to assess the correlation between the ATP detection by Compound 4 and the pH of the solution, the present inventors measured a fluorescence spectrum (the fluorescence spectrum was obtained using a Photon Technical International Fluorescence System) by filling a quartz fluorescence cell (114F-QS, Hellma Analytics) with a 1 cm light path with a PBS solution (with 0.1% acetonitrile) with a pH range of 4.0 to 8.0 comprising 10 μM Compound 4 and ATP (0.0-1.0 mM), and graphs of the fluorescence ratio (y-axis) with respect to the pH (x-axis) are shown in FIG. 3A. According to FIG. 3A, the detectability changed with pH. It was observed that ATP was detected only under acidic conditions (pH 4.8-5.8) of lysosomes, which are the only organelles maintaining acidic conditions in cells, and was not detected at near-neutral pH (pH 7.0-7.5), which corresponds to the pH of most cells. In addition, the fluorescence ratio (y-axis) that changes with respect to the ATP concentration (x-axis) is provided for the pH range of 4.5 to 5.5 in FIG. 3B.

CCNc1cc2c(cc1C)C1(c3cc(C)c(NCC)cc3O2)c2ccccc2C(=O)N1CCNCCNCCNC1=C2C=CC=[N+]2[B-](F)(F)n2cccc21 [Compound 4, 10-((2-((2-((2-(3′,6′-bis(ethylamino)-2′,7′-dimethyl-3-oxospiro[isoindoline-1,9′-xanthen]-2-yl)ethyl)amino)ethyl)amino)ethyl)amino)-5,5-difluoro-5H-dipyrrolo[1,2-c:2′,1′-f][1,3,2]diazaborinin-4-ium-5-uide]
cytotoxicity, cells died (HeLa cells; 100 μM, within 8 hours): about 20%
cytotoxicity, cells died (HeLa cells; up to 10 μM, within 24 hours): about 8%
new absorption wavelength when ATP was detected ([1]; 1 mM ATP, in addition to 400 nm): ~540 nm
single absorption wavelength of the fluorescent probe ([1]; no ATP): ~400 nm
selectivity in ATP detection among various cations and anions [2]: highly selective to ATP
detection of lysosomal ATP in deep tissue [3]: selectively detected lysosomal ATP
lysosomal selectivity [4]: highly selective to lysosomes
colocalization factor with LysoTracker ([4]; 10 μM Compound 4 and 50 nM LysoTracker, 1 hour): about 0.95
pH range in which ATP was detected ([5]; 10 μM, PBS pH 4.0 to 8.0, ATP 0.0-1.0 mM, acidic conditions of lysosomes): 4.8-5.8 pH
change of fluorescence intensity near 550 nm as ATP concentration increased ([5]; 10 μM, pH 5.5 PBS (0.1% acetonitrile), ATP 0.0-1.0 mM): greatly increased
ATP detection at near-neutral pH ([5]; pH 7.0-7.5, 10 μM, ATP 0.0-1.0 mM): not detected
